Source: patent EP0325016A1, “Antiperspirants with alpha-2-adrenergic amine activity” (Bristol-Myers Company, priority 1988, dated 1989)
Structures can show the parent of a compound that is named as a salt.

Test system: rat foot pad
Test: Inhibition of sweat in the rat foot pad (iodine/starch count of activated sweat glands, test foot vs control foot)
Assay type: in vivo, Sprague Dawley rats
Conditions: for Approx. % Inhibition: topical on hind foot pads, photo 40 minutes post treatment
Description: To test the effectiveness of the adrenergic amines encompassed in this invention in inhibiting perspiration the following tests were carried out.
A series of test solutions were prepared by dissolving various quantities of xylometazoline HCl, oxymetazoline HCl and naphazoline HCl in freshly prepared distilled water. In the case of xylometazoline HCl 0.003%, 0.03%, 0.15% and 0.3% solutions were prepared. In the cases for oxymetazoline HCl and naphazoline HCl 0.15% solutions were made. The control material is distilled water.
• A. Prior to testing, rats are routinely acclimated to the laboratory environment for seven days and gross observations are made to ensure good health of animals to be tested. • B. Sprague Dawley rats, male and/or female (175-250 gm) are selected for test and identified by cage label and ear tag number. • C. A minimum of 6 animals is used in testing each solution.
• A. Test room should be maintained at a temperature of 78/± 2/F. • B. • 1. Test animals are injected intramuscularly with Innovar Vet\)\ (.01 ml/100 gm body wt.) by use of a 0.25 ml tuberculin syringe with a 26-27 gauge needle. Animals are then returned to their cages. • 2. […] Both hind feet are then swabbed with 70% ethyl alcohol (ETOH) to remove any debris. • 4. The four interdigital palmar foot pads on one hind foot are then treated with test material while the opposite hind foot is treated with the control material. • 5. After treatment of all animals, an iodine solution (2% in 95% ETOH wt./vol.) is applied to both hind feet. • 6. 30 minutes post treatment the hind feet are then painted with a suspension of starch and castor oil (50/50, wt./vol.). • 7. 40 minutes post treatment Polaroid photos (3X, using Polaroid Type Film 669) are taken of both hind feet in the same frame.
• 1. The number of activated sweat glands in each of the four palmar foot pads is quantitated by manually counting the black dots observed in the photo of the control and test treated feet. • 2. The ratio of the total number of secreting sweat glands on the control foot vs the total number of secreting glands on the test foot is used to estimate the percent inhibition of sweat in the rat foot pad. • 3. The following formula is used to calculate activity: Percent inhibition of sweat in the rat foot pad = [formula]

[1] = Concentration tested 0.15% in distilled water

SMILES	Approx. % Inhibition [1] [%]	Approx. % Inhibition (Concentration tested 0.003% in distilled water) [%]	Approx. % Inhibition (Concentration tested 0.03% in distilled water) [%]	Approx. % Inhibition (Concentration tested 0.3% in distilled water) [%]	perspiration inhibition (result in words) (summary of Table I, concentrations 0.003-0.3%)
c1ccc2c(CC3=NCCN3)cccc2c1 [Naphazoline HCl, naphazoline HCl]	~95				
Cc1cc(C(C)(C)C)c(O)c(C)c1CC1=NCCN1 [Oxymetazoline HCl, oxymetazoline HCl]	~92				
Cc1cc(C(C)(C)C)cc(C)c1CC1=NCCN1 [Xylometazoline HCl, xylometazoline HCl]	~80	~30	~50	~88	a dose response has been demonstrated
